In patent US12054451B1, “Water soluble platinum (II) amino acid schiff base as an antitumor drug” (KING FAISAL UNIVERSITY, priority 2024, dated 2024):

Tested on: HepG-2 (Hepatocellular carcinoma)
Assay: SRB (sulforhodamine-B-stain) anticancer assay, HepG-2
Type: cell-based
Settings: Homo sapiens, HepG2, HepG-2 cells, 48 hours at 37° C., absorbance 564 nm
Procedure: Investigation for the bio-reactivity of PtL, as an antitumor candidate, was achieved versus well documented human cancer cell lines, as three cancers entitled HepG2, MCF-7, and HCT-116, using the simplest tool SRB (sulforhodamine-B-stain). In particular, the most popular anticancer referenced drug (vinblastine) was used in the anticancer assay (the inhibited action of the cancer cells) to compare its bio-reactivity versus that one of PtL. The antitumor reactivity of PtL was evaluated by IC50 concentrations (half effected concentration in μM) for inhibiting the growth of the tumor and normal cell lines of human in which IC50 concentrations were obtained from Eq. 1, below.
With HepG-2 (Hepatocellular carcinoma), HCT-116 (colon carcinoma), and MCF7 (breast adenocarcinoma), as human cancer cell lines, the antitumor potential of PtL was studied against their growth by applying a spectrometric tool. Using SRB (sulforhodamine-B-stain) was essential in the spectrometric studies at a specific wavelength (564 nm, the optimized absorption wavelength). Recording the corresponded absorbance (A) at 564 nm was accomplished using a UV/Vis. spectrophotometer, UV-1800 mode Shimadzu with a mono-cell holder. […]

Compound: CC[C@]1(O)C[C@@H]2CN(CCc3c([nH]c4ccccc34)[C@@](C(=O)OC)(c3cc4c(cc3OC)N(C)[C@H]3[C@@](O)(C(=O)OC)[C@H](OC(C)=O)[C@]5(CC)C=CCN6CC[C@]43[C@@H]65)C2)C1 [Vinblastine, vinblastine]
- IC50: 7.5 ± 0.1 µM
